# Reference: a melting point compilation (Tetko et al.; mined from patent text by program, amines drawn as free bases though some values may be those of a salt)
row,Structure (SMILES),melting point
1,CC(C)(C)OC(=O)CN(C(=O)CN1C(=O)c2ccccc2C1=O)c1ccccc1Cc1ccccc1,190 °C
2,CC(Oc1ccc(Nc2cnc3cc(Cl)ccc3c2)cc1)C(=O)O (centres undefined),150 °C
3,CCOC(=O)CCCCn1c(=O)[nH]c2ccc(O)cc2c1=O,105 to 107 °C
4,Cc1c2c(c(C(C)c3ccc(C(C)C)cc3)c(C)c1NC(=O)CC(C)(C)C)OCC2 (centres undefined),189 to 190 °C
5,Cc1ccc2oc(-c3ccc(C=Cc4ccc(C(=O)O)cc4)cc3)cc2c1,355 to 358 °C
6,CON=C(C1=NOCCO1)c1ccccc1CCl,93 to 96 °C
7,Nc1ccc(OC(F)(F)F)cc1C=O,42 to 44 °C
8,Cc1csc(N2CCN(Cc3ccc(C(=O)n4nccc4C)cc3)C2=O)n1,96 to 97 °C
9,COc1ccc2c(c1OC)C(=O)O[C@@H]2[C@H]1c2c(c(Br)c3c(c2OC)OCO3)CCN1C,169 to 170 °C
10,CC(C)(c1cc(F)ccc1O)c1cc(F)ccc1O,155 °C
11,N#CC(c1ccc(Cl)c(Cl)c1)c1c(Cl)cc(N)cc1Cl (centres undefined),191 to 194 °C
12,C=CC(=O)OCCCCCCC(CCCCCCOC(=O)C=C)C(=O)OCCCCCCCCCCCCCCCCOc1ccc(-c2cccc(F)c2F)cc1,33.8 to 35.5 °C
13,CN1CC(CCN2CCN(c3ccccc3)CC2)c2nc3ccccc3n2C1=O (centres undefined),144 to 146 °C
14,CCCCCCCCCCCCCCOc1ccc(CN(C(C)=O)c2ccc(CBr)cc2)cc1,46 to 49 °C
15,CC(C)CNc1c(N)c2nnnn2c2cnccc12,203 to 204 °C
16,COc1c(C=NO)ccc(Cl)c1Cl,82 to 83 °C
17,COc1ccc(-c2ccnnc2)cc1OC1CCCC1,100 to 102 °C
18,NC(=O)Nc1ccc(-c2nnc(CSCCOc3ccccc3)o2)cc1,> 220 °C
19,Clc1ccc2c3c(cnc2c1)OC1(C=N3)CCCCC1,216 to 218 °C
20,O=c1ccnc(NCCCN(Cc2ccccc2)c2ccccn2)[nH]1,162 to 163 °C
21,COc1cc2c(cc1OC)C(=CO)C(=O)N2,216 to 217 °C
22,CCSc1cnc(Cl)cc1C#N,112 to 114 °C
23,CC(C)Nc1cccnc1N1CCN(C(=O)c2ccc(C(=O)N3CCN(CCOCCO)CC3)cc2)CC1,92 to 93 °C
24,O=C1Cc2c(cccc2N(CCN(Cc2ccccc2)C(=O)C(F)(F)F)C(=O)C(F)(F)F)N1,108 to 111 °C
25,COC(=O)C(C)c1ccc2cc(OC(=O)CO)ccc2c1 (centres undefined),49.5 to 52 °C

row,Structure (SMILES),melting point
1,O=C(O)C=CC=CCCCCCc1cccc2cncn12,120 to 122 °C
2,CCCCc1nc2cnc3ccc(O)cc3c2n1C,219 to 220 °C
3,CC(C)(C)OC(=O)N1CCN(c2nsc3ccccc23)CC1,105 to 107 °C
4,CC(C)(C)OC(=O)NCCc1cccc(C#N)n1,79.1 to 80.3 °C
5,CC(C)Cn1c(CN2C(=O)c3ccccc3C2=O)c(-c2ccc(F)cc2)c2cc(OCc3ccccc3)ccc2c1=O,198 to 199 °C
6,COC(=O)c1cc(OC)c(CNC(C)=O)c(OC)c1,184 °C
7,CCCCN(CCCC)CCCOc1ccc(S(=O)(=O)c2c(C(C)C)n(C)c3ccccc23)cc1,90 °C
8,CCCCN(C(=O)CCCCC(=O)N(CCCC)C1CC(C)(C)NC(C)(C)C1)C1CC(C)(C)NC(C)(C)C1,134 to 144 °C
9,CCCCCCCNC(=O)Nc1ccccc1C(=O)NC1CCN(C(=O)Oc2ccccc2)CC1,142 to 144 °C
10,CC(C)(C(=O)C(Oc1ccc(Cl)cc1Cl)n1ccnc1)C(Cl)Cl (centres undefined),125 to 126 °C
11,CCCCCCc1ccc(CCc2cc3c(s2)NC(=S)CN=C3c2ccccc2Cl)cc1,140 to 145 °C
12,CCOC12CCC(=O)CC13CCN(C)C2Cc1ccc(OC)cc13 (centres undefined),171 to 173 °C
13,CC1=NNC(=O)C1(C)Cl (centres undefined),56 °C
14,CN1CCN(CCNc2ncnc3c2sc2nc(N4CCCC4)c4c(c23)CC(C)(C)OC4)CC1,97.5 to 98.8 °C
15,CCOC(=O)C(C(=O)Nc1ccc(OC)cc1)(c1ccccc1)c1ccccc1,89 to 91 °C
16,C=CCn1cc(C(=O)O)c(=O)c2cc(F)c(N3CCN(Cc4ccccc4)CC3)cc21,209 °C
17,COc1ccc(C(=O)c2ccc(Cl)c(Cl)c2)c(Cl)c1Cl,113 to 140 °C
18,O=C(O)CCC(=O)N[C@@H](Cc1ccc(-c2ccccc2)cc1)C(=O)NCCCCNc1ncccn1,200 to 205 °C
19,CC(=O)Nc1ccc(S(=O)(=O)CCN2CCOCC2)cc1,136 to 137 °C
20,O=C(CC1CCCCC1)N(O)Cc1ccccc1,83 to 85 °C
21,CCC(=O)Oc1cc(OC)cc(OC)c1C(=O)C=Cc1ccccc1,116 to 117 °C
22,Cc1cc(C)n(-c2nc(Nc3ccc(-c4ccccc4)cc3)c3ccccc3n2)n1,268 to 270 °C
23,CN(C)CC/C=C1/c2ccccc2COc2ccc(C(=O)O)cc21,121 to 123 °C
24,CCCO[C@@H](Cc1ccc(OCCc2nc(-c3ccc(-c4ccccc4)cc3)oc2C)c2ccsc12)C(=O)O,147 to 151 °C
25,COc1cc2cc(/C=C/c3ccccc3)[nH]c2cc1OCc1ccccc1,140 to 145 °C

row,Structure (SMILES),melting point
1,O=S1(=O)NCNc2ccc(Br)cc21,200 to 204 °C
2,COC(=O)N1CCN(C(=O)N2CCC(c3cccnc3)C2)c2ccccc21 (centres undefined),83 °C
3,c1ccc2c(c1)ccn2Cc1ccncc1,65 to 68 °C
4,CCOC(=O)CN1CC[C@@H](O)C1=O,84 to 85 °C
5,Oc1ccc(-c2nn(C3CCCC3)c3c(C(F)(F)F)cccc23)c(O)c1,159 to 160 °C
6,COC1(C)c2ccc(C#Cc3cc(Cl)ccc3OCC(=O)O)cc2S(=O)(=O)C1(C)C (centres undefined),80 to 95 °C
7,COC(=O)c1ccc(S(C)(=O)=O)c(CBr)c1Cl,77 to 78 °C
8,C=CCN(Cc1cc(Br)ccc1OCc1ccccc1)c1ccc(C(=O)O)nn1,135 to 136 °C
9,CS(=O)(=O)c1ccc(-c2c(-c3ccccc3)c(=O)c2=O)cc1,139 to 140 °C
10,Nc1ccc(C(=O)c2ccccc2)cc1C=O,125 °C
11,Cn1cccc1CCNC(=O)C(C#N)C(=O)c1nn(-c2ccccc2)c2c1Cc1ccccc1-2 (centres undefined),288 to 291 °C
12,C#CCN(CC#C)S(=O)(=O)c1cccc2c(N(C)C)cccc12,67 to 69 °C
13,Cc1ccc(Br)c(C)c1C(=O)O,121 °C
14,O=C(Nc1ccccc1)n1[nH]c(C(F)(F)F)cc1=O,109 to 110 °C
15,Cc1cccc(N2CCN(C(=O)OC(C)(C)C)CC2)c1[N+](=O)[O-],101 to 102 °C
16,COc1cc2c(cc1OC)CN(CCCCOc1ccc(NC(=O)c3nccc4ccccc34)cc1)CC2,122 to 123 °C
17,CCOC(=O)CN1C(=O)C2(COc3cc4c(cc32)OCCO4)c2ccccc21 (centres undefined),58 to 59 °C
18,CC(=O)NC[C@H]1CN(c2ccc(N3CCC(n4ncn(C)c4=S)CC3)c(F)c2)C(=O)O1,182 to 185 °C
19,CC(C)Cn1c(C(=O)OC(C)(C)C)c(-c2ccccc2)c2cc(OCc3ccccc3)ccc2c1=O,138 to 139 °C
20,CCCn1c(=O)c2c(NC)n[nH]c2n(CCc2ccccc2)c1=O,256 to 258 °C
21,COc1ccc2c(c1)C(C(=O)N(Cc1ccc(OCC(F)(F)F)cc1)c1ccc(C(C)C)cc1)CCC2 (centres undefined),125 to 127 °C
22,Cc1cc(-c2cc(C(F)(F)F)nc(-c3ccnc(-c4ccc(S(N)(=O)=O)s4)c3)n2)ccc1Cl,280 °C
23,Fc1ccc(-n2ccc3cc(-c4cccnc4)ccc32)cc1,108 to 110 °C
24,c1ccc2c(c1)nc1n2CCC1,86 to 88 °C
25,Oc1c(C2(c3ccc4ccccc4c3O)c3ccccc3-c3ccccc32)ccc2ccccc12,268 to 290 °C

row,Structure (SMILES),melting point
1,CCCOc1ccc(S(=O)(=O)NCc2ccncc2)cc1-c1nc2cc(N)c(N)cc2c(=O)[nH]1,157 to 160 °C
2,CCOC(=O)C(Cc1ccc(C(C(N)=O)C(C)c2ccccc2N2CCCCC2)cc1)C(=O)OCC (centres undefined),123 to 125 °C
3,CC(=O)c1ccc(OCCCN2CCC(c3noc4cc(F)ccc34)CC2)cc1,111 to 112 °C
4,COC(=O)c1ccc2nc(C(C)C)c(C(C)C)nc2c1,53 to 55 °C
5,NS(=O)(=O)c1cccc(NC(=O)NC2N=C(c3ccccc3F)c3ccccc3N(CC(=O)N3CC4CCC(CC4)C3)C2=O)c1 (racemic),221 to 226 °C
6,COc1cccc2c(=O)c3cccc(OC)c3sc12,248 to 250 °C
7,COc1ccc2ccc(OCc3ccc4ccccc4n3)cc2c1,113 to 114 °C
8,O=C(O)CCc1cc2cc(Cl)c(Cl)cc2n1S(=O)(=O)c1ccccc1,192 to 198 °C
9,CCN1C[C@@H](O)[C@H](N(C(=O)c2ccc(Cl)cc2)C2CCCCC2)C1 (relative stereo),111 to 116 °C
10,N#Cc1cnc(N[C@H]2CC[C@H](O)CC2)c([N+](=O)[O-])c1,157 to 158 °C
11,CN1CCN(C2=Nc3cc(Br)ccc3Nc3nn(C)nc32)CC1,183 to 184 °C
12,CCOC(=O)c1c(C(C)C)c2n(c1-c1ccc(F)cc1)CCCC2,76 to 78 °C
13,N#Cc1ccc2c(c1)CCc1nn(-c3ccccn3)c(O)c1-2,232 to 233 °C
14,CN(C)CCCCCCCCCCOc1ccc(C(=O)c2ccccc2)cc1,33 to 35 °C
15,O=C(Nc1ccc2ccc(Cl)nc2n1)c1c(F)cccc1F,242 °C
16,Oc1cccc(N(c2ccccc2)c2ccc(-c3ccc(N(c4ccccc4)c4cccc(O)c4)cc3)cc2)c1,113 to 117 °C
17,CCCCCCCCOc1ccc2c(OC(C)=O)c3cc4ccccc4cc3c(OC(C)=O)c2c1,107 to 111 °C
18,Cc1ccccc1C(Oc1cc(OCc2ccoc2)ccc1C#N)C(=O)O (racemic),141 to 143 °C
19,O=C(O)c1ccc2c(c1-c1c(C(=O)O)ccc3c1OCO3)OCO2,253 to 255 °C
20,CCC(=O)Nc1cnn2cnc3ccccc3c12,202 to 204 °C
21,COc1ccc(CNc2c(OCCC(O)c3ccc(Cl)cc3)n[nH]c(=O)c2Br)cc1OC (centres undefined),190 to 196 °C
22,CSC(=O)c1c(C(F)F)nc(C(F)(F)F)c(C(=O)SC)c1NC1CC1,85 to 86 °C
23,NS(=O)(=O)c1cc2nc(O)c(O)nc2c2scnc12,> 400 °C
24,OCc1nc(Cl)cc(N2CCCC2)n1,90 to 93 °C
